Assays:
[1] = tested on: CAL-120-CDK12d-res; experiment: Proliferation assay CDK12 degrader resistant CAL-120; format: cell-based, human; details: for IC50: Homo sapiens, 96 h, CDK12 degrader resistant CAL-120 cells, 4 days, median, read-out: Prolif-CAL-120-CDK12d-res, IC50 - [mol/l] (median); for Ratio (Prolif-CAL-120-CDK12d-res IC50 / Prolif-CAL-120 IC50): resistant versus parental CAL-120 cells
Source text: (§1) CDK12-degrader resistant cells were generated by propagation of CAL-120 human breast adenocarcinoma cells (DSMZ ACC-459) and MDA-MB-231 human breast cancer cells (ATCC HTB-26) in presence of increasing concentrations of the CDK12 degrader compound example 4 from WO 2021/116178. Initial concentrations of example 4 were 2.0E-08 M for CAL-120 cells and 4.6E-08 M for MDA-MB-231 cells, corresponding to ca. 2-fold the IC50 of inhibition of the cells in an proliferation assay. After the treated cells recovered and proliferated again the concentration of compound example 4 was increased to 3-fold IC50.
(§2) To determine the inhibitory effect of test compounds on proliferation of CAL-120-CDK12d-res, MDA-MB-231-CDK12d-res the cells were plated at a density of 4,000 cells/well in a 96-well multitier plate in 200 microL of their respective growth medium supplemented 10% fetal calf serum. After 24 hours, the cells of one plate (zero-point plate) were stained with crystal violet (see below), while the medium of the other plates was supplemented with the test substances in various concentrations (0 micromol/L, as well as in the range of 0.01-10 micromol/L; the final concentration of the solvent dimethyl sulfoxide was adjusted to 0.1%) using a Tecan HP D300 Digital Dispenser. The cells were incubated for 4 days in the presence of test substances. Cell proliferation was determined by staining the cells with crystal violet: the cells were fixed by adding 20 microL/measuring point of an 11% glutaric aldehyde solution for 15 minutes at room temperature. After three washing cycles of the fixed cells with water, the plates were dried at room temperature. The cells were stained by adding 100 microL/measuring point of a 0.1% crystal violet solution (pH 3.0). After three washing cycles of the stained cells with water, the plates were dried at room temperature. The dye was dissolved by adding 100 microL/measuring point of a 10% acetic acid solution. The extinction was determined by photometry at a wavelength of 595 nm. The change of cell number, in percent, was calculated by normalization of the measured values to the extinction values of the zero-point plate (=0%) and the extinction of the untreated (0 μM) cells (=100%). The IC50 values (inhibitory concentration at 50% of maximal effect) were determined by means of a 4 parameter fit.

[2] = tested on: MDA-MB-231-CDK12d-res; experiment: Proliferation assay CDK12 degrader resistant MDA-MB-231; format: cell-based, human; details: for IC50: Homo sapiens, 96 h, CDK12 degrader resistant MDA-MB-231 cells, 4 days, median, read-out: Prolif-MDA MB-231-CDK12d-res, IC50 - [mol/] (median); for Ratio (Prolif-MDA MB-231-CDK12d-res IC50 / Prolif-MDA MB-231 IC50): resistant versus parental MDA-MB-231 cells
Source text: as §1, §2

[3] = tested on: CYCLIN K; experiment: CYCLIN K nuclear protein level: immunofluorescence/high content analysis in CAL-120 cells; format: cell-based, human; details: 24 h, nuclear CCNK staining intensity, median, read-out: CYCLIN K degradation IF, DC50 - [mol/l] (median)
Experimental: CAL-120 human breast cancer cells (DSMZ ACC 459) are seeded in 1536-well microtiter plates (800 cells per well) containing 50 nanoL of compounds in Dose-Response. Control wells received DMSO or Example 4. Plates are then incubated for 24 h at 37° C. in an humidified incubator and fixed with 4% PFA for 10 min. Then immunofluorescence (IF) against CYCLIN K (ThermoFisher Scientific CCNK Antibody #PA5-85020, rabbit, 1:200 dilution) is performed using standard IF protocols. Cells are then stained with Hoechst 33342 (Life Technologies, H-1399, 0.1 microg/ml) and imaged on an automated confocal microscopy system (e.g. Perkin Elmer Opera Phenix). Nuclear and cytoplasmic intensity as well as the nuclear/cytoplasmic intensity ratio is determined by automated image analysis using custom generated scripts (MetaXpress). Data is then transferred to Genedata Screener software, normalized to DMSO and control and DC50 values (degrading concentration to achieve 50% reduction of nuclear CCNK staining intensity relative to controls) are reported.

[4] = tested on: HUH-7; experiment: Proliferation assay: cell line panel, HUH-7; format: cell-based; details: Homo sapiens, 96 h, liver cancer, 4 days, read-out: Result Category, IC50 (mean)
Source text: (§3) Human tumour cells were originally obtained from the American Type Culture Collection (ATCC), from Cell Line Services GmbH (CLS), from the Deutsche Sammlung von Mikroorganismen und Zellkulturen (DSMZ, German Collection of Microorganisms and Cell Cultures), from the Japanese Cancer Research Resources Bank (JCRB), from Public Health England, from the European Collection of Authenticated Cell Cultures (ECACC), from Asterand Biosciences, or from the National Cancer Institute (NCI). Cultivated tumour cells were plated at the density as indicated in Table 6 in 96-well multitier plates in 200 microL of their respective growth medium supplemented 10% fetal calf serum. […] Cell proliferation was determined by staining the cells with crystal violet: the cells were fixed by adding 20 microL/measuring point of an 11% glutaric aldehyde solution for 15 minutes at room temperature. […] The extinction was determined by photometry at a wavelength of 595 nm. The change of cell number, in percent, was calculated by normalization of the measured values to the extinction values of the zero-point plate (=0%) and the extinction of the untreated (0 μM) cells (=100%). […]

[5] = tested on: EFM192A; experiment: Proliferation assay: cell line panel, EFM192A; format: cell-based; details: Homo sapiens, EFM-192A, 96 h, breast cancer, HER2 positive, 4 days, read-out: Result Category, IC50 (mean)
Source text: as §3

[6] = tested on: COV318; experiment: Proliferation assay: cell line panel, COV318; format: cell-based; details: Homo sapiens, 96 h, ovarian cancer, 4 days, read-out: Result Category, IC50 (mean)
Source text: as §3

[7] = tested on: HCC1806; experiment: Proliferation assay: cell line panel, HCC1806; format: cell-based; details: Homo sapiens, 96 h, breast cancer, triple-negative, 4 days, read-out: Result Category, IC50 (mean)
Source text: as §3

[8] = tested on: HT-144; experiment: Proliferation assay: cell line panel, HT-144; format: cell-based; details: Homo sapiens, 96 h, melanoma, 4 days, read-out: Result Category, IC50 (mean)
Source text: as §3

Compound	IC50 [1]	Ratio (Prolif-CAL-120-CDK12d-res IC50 / Prolif-CAL-120 IC50) [1]	IC50 [2]	Ratio (Prolif-MDA MB-231-CDK12d-res IC50 / Prolif-MDA MB-231 IC50) [2]	DC50 [3]	IC50 [4]	IC50 [5]	IC50 [6]	IC50 [7]	IC50 [8]
FC(F)(F)c1ccc(-c2nnc(CNc3nc(N4CCOCC4)nn4c(C(F)(F)F)cnc34)[nH]2)cn1 [Example 20, 2-(morpholin-4-yl)-7-(trifluoromethyl)-N-({5-[6-(trifluoromethyl)pyridin-3-yl]-4H-1,2,4-triazol-3-yl}methyl)imidazo[2,1-f][1,2,4]triazin-4-amine]	0.118 µM	1.4	0.155 µM	2.9	> 1 µM	–	–	–	–	–
FC(F)(F)Oc1ccc(-c2cnc(CNc3nc(N4CCOCC4)nn4c(C(F)(F)F)cnc34)[nH]2)cc1 [Example 8, 2-(morpholin-4-yl)-N-({5-[4-(trifluoromethoxy)phenyl]-1H-imidazol-2-yl}methyl)-7-(trifluoromethyl)imidazo[2,1-f][1,2,4]triazin-4-amine]	0.173 µM	1.9	0.178 µM	1.6	> 1 µM	0.03 to 0.1 µM	≥ 0.1 µM	≥ 0.1 µM	0.03 to 0.1 µM	0.03 to 0.1 µM
COc1ccc(-c2nnc(CNc3nc(N4CCOCC4)nn4c(C(F)(F)F)cnc34)[nH]2)cn1 [Example 18, N-{[5-(6-methoxypyridin-3-yl)-4H-1,2,4-triazol-3-yl]methyl}-2-(morpholin-4-yl)-7-(trifluoromethyl)imidazo[2,1-f][1,2,4]triazin-4-amine]	0.252 µM	2.4	0.288 µM	4.0	> 1 µM	–	–	–	–	–
FC(F)(F)c1ccc(-c2cnc(CNc3nc(N4CCOCC4)nc4c(C(F)(F)F)cnn34)[nH]2)cn1 [Example 24, 2-(morpholin-4-yl)-8-(trifluoromethyl)-N-({5-[6-(trifluoromethyl)pyridin-3-yl]-1H-imidazol-2-yl}methyl)pyrazolo[1,5-a][1,3,5]triazin-4-amine]	0.0407 µM	1.3	0.0626 µM	2.9	> 1 µM	–	–	–	–	–
FC(F)(F)c1ccc(-c2cnc(CNc3nc(N4CCOCC4)nn4c(C(F)(F)F)cnc34)[nH]2)cc1 [Example 7, 2-(morpholin-4-yl)-7-(trifluoromethyl)-N-({5-[4-(trifluoromethyl)phenyl]-1H-imidazol-2-yl}methyl)imidazo[2,1-f][1,2,4]triazin-4-amine]	0.112 µM	1.1	0.156 µM	1.7	–	0.03 to 0.1 µM	≥ 0.1 µM	≥ 0.1 µM	≥ 0.1 µM	0.03 to 0.1 µM

Reference: US20250066370A1, “BICYCLIC TRIAZINE DERIVATIVES FOR THE TREATMENT OF CANCER” (DEUTSCHES KREBSFORSCHUNGSZENTRUM, priority 2022, published 2025)
